From patent publication US10561658B2, “Thieno- and pyrrolopyrimidine analogues as anticancer agents and methods of use thereof” (UNIVERSITY OF MARYLAND, BALTIMORE COUNTY, priority 2015, dated 2020)

Assays:
[1] = test system: murine leukemia L1210 cells; assay: Cell proliferation assay, L1210; format: cell-based; settings: Mus musculus, 48 h proliferation, Coulter counter, read-out: IC50 L1210
Experimental: (§1) Cell proliferation assays for several of the compounds were performed on L1210, a mouse lymphocytic leukemia cell line; CCRF-CEM [39] an acute lymphoblastic leukemia cell line; and HeLa, a human cancer cell line derived from a human cervical adenocarcinoma. Murine Leukemia L1210, human lymphocytic CEM and human cervix carcinoma HeLa cells were obtained from the American Type Culture Collection (ATCC) (Rockville, Md.). All assays were performed in 96-well microtiter plates. To each well were added (5-7.5)×10^4 tumor cells and a given amount of the test compound. The cells were allowed to proliferate for 48 h (murine leukemia L1210 cells) or 72 h (human lymphocytic CEM and human cervix carcinoma HeLa cells) at 37° C. in a humidified CO2-controlled atmosphere. At the end of the incubation period, the cells were counted in a Coulter counter. The IC50 (50% inhibitory concentration) was defined as the concentration of the compound that inhibited cell proliferation by 50%. […] Presence of C7 iodine on the 2,4-dichloro pyrrolo[3,2-d] (compound 20) increases the anticancer activity by a factor of 5 when compared to compound 19. […] This alludes to a) importance of C7-I towards activity against cancer cell lines for the 2,4-O-benzylated analogues (15 and 16).

[2] = test system: human lymphocytic CEM cells; assay: Cell proliferation assay, CEM; format: cell-based; settings: CCRF-CEM, 72 h proliferation, Coulter counter
Experimental: as §1

[3] = test system: human cervix carcinoma HeLa cells; assay: Cell proliferation assay, HeLa; format: cell-based; settings: 72 h proliferation, Coulter counter
Experimental: as §1

[4] = test system: Escherichia coli ATCC 25922; assay: Antimicrobial growth inhibition, E. coli; format: cell-based; settings: ATCC25922; Escherichia coli ATCC 25922, 100 μM
Experimental: (§2) Evaluation of antimicrobial activity in vitro. Compounds were tested against the following panel of bacteria and fungi purchased from the American Type Culture Collection (ATCC). Briefly, bacteria were grown to mid-log phase, diluted with fresh medium to an optical density at 600 nm (OD600) of 0.030-0.060 and then diluted again 1:10. This suspension (195 μL) was added to wells in a 96 well microtiter plate (Sarstedt) and 5 μL of compound dissolved in DMSO was added to give a final concentration of 100-0.1 μM at 2.5% DMSO by volume. A DMSO negative control and standard antibiotic positive controls were included in each plate. All compounds were tested in triplicate for each concentration. Plates were sealed with parafilm, placed in a Ziploc bag to prevent evaporation, and incubated at 30° C. (fungi) or 37° C. (bacteria) for 16-20 hours (48 hours for C. neoformans). The OD600 values for each well were determined with a plate reader (Biotek, EL800) and the data were standardized to the DMSO control wells after subtracting the background from blank medium. Initial single concentrations were tested at 100 μM and active compounds were further tested with at least nine concentrations for a full dose response. Dose response curves were generated using GraphPad Prism 5 software and used to determine the MIC95 concentrations (minimal concentration that inhibits 95% of growth). Compounds 1, 2, 5 and 19 were screened for growth inhibition activity against a panel of bacteria and fungi at a concentration of 100 as shown in Table 2. Compound 5 was included to test the importance of the C4-Cl substituent for activity across a broader range of biological systems.

[5] = test system: Bacillus subtilis ATCC 6633; assay: Antimicrobial growth inhibition, B. subtilis; format: cell-based; settings: ATCC6633; Bacillus subtilis ATCC 6633, 100 μM
Experimental: as §2

[6] = test system: Staphylococcus aureus subsp. aureus (MRSA) ATCC 43300; assay: Antimicrobial growth inhibition, S. aureus (MRSA); format: cell-based; settings: Staphylococcus aureus (MRSA) ATCC 43300, 100 μM
Experimental: as §2

[7] = test system: Candida albicans ATCC 10231; assay: Antifungal growth inhibition and MIC95, C. albicans; format: cell-based; settings: ATCC10231; Candida albicans ATCC 10231, 100 μM
Experimental: as §2
(§3) Compounds 1 and 2 were further tested against the susceptible fungal strains to determine the MIC95 values.

Cryptococcus neoformans = assay: Antifungal growth inhibition and MIC95, C. neoformans strains; format: cell-based
Experimental: as §2, §3

[8] = test system: L1210, CEM and HeLa cells; assay: Cell proliferation assays, comparison across cancer cell lines; format: cell-based; settings: C7 iodine vs compound 19
Experimental: as §1

MDA-MB-231 cells [9] = assay: Cell cycle distribution (propidium iodide, flow cytometry), MDA-MB-231; format: cell-based, human; settings: 1.75 μM
Experimental: Cell cycle distributions of MDA-MB-231 cells after 48 hours in the presence of equitoxic (IC80) doses of (a) compound 1 (15 μM) or (b) compound 2 (8 μM) analyzed by flow cytometry of fixed, propidium iodide-stained cells and compared to vehicle controls (DMSO). A minimum of 3000 cells were analyzed per cell population. Each bar represents the mean±SD across 4 independent cell samples.
(§4) Cell-cycle and apoptosis studies were conducted in MDA-MB-231 cells. Cell-cycle analysis of compound 19 at 15 μM concentration lead to arrest of 60% cells in G2/M stage. Similarly, at 1.75 μM concentration, compound 20 arrested 30% of cells in G2/M stage. […] To evaluate the possible mechanism for arrest of cell proliferation, cell-cycle distribution was measured using propidium iodide staining and flow cytometry. […] There are several possibilities that could account for this, including: (i) that cell lysis occurs rapidly following induction of apoptosis, preventing significant accumulation of annexin V-positive bodies, or (ii) that a distinct cell death pathway is triggered by compound 19.
Human metastatic breast cancer MDA-MB-231 cells were obtained from the American Type Culture Collection (ATCC) (Rockville, Md.) and maintained in Dulbecco's Modified Eagle's Medium (DMEM) containing 10% fetal bovine serum (FBS) without antibiotics at 37° C. in a humidified, CO2-controlled incubator. The cytotoxicity of compounds 1 and 2 was assessed by reduction of 3-(4, 5-dimethylthiazol-2-yl)-2,5-diphenyltetrazolium bromide (MTT). MDA-MB-231 cells were seeded in 96-well plates at 5×10^3 cells per well and treated with a range of drug concentrations. After 48 hours, cell viability was measured using the MTT Cell Proliferation Assay kit (ATCC) according to the manufacturer's instructions. Percent cell viability was plotted as a function of drug concentrations and analyzed using a sigmoidal dose response function with PRISM v3.03 software (GraphPad) to resolve drug concentrations yielding 50% cell death (IC50). The cell cycle distributions of MDA-MB-231 cells treated with compounds 1 or 2 were analyzed using propidium iodide staining and flow cytometry. 2×10^6 cells were seeded in 100 mm dishes and treated with compounds 1 or 2 at the IC80 values determined by cell viability assays or an equivalent volume of DMSO. 48 h following treatment the cells were collected, fixed, and stained with propidium iodide (Sigma Aldrich) immediately before analysis by flow cytometry.
As shown in Example 11, compounds 1 and 2 both induced apoptosis but involving a mechanism independent of cell cycle arrest. To test whether the toxicity of these agents for MDA-MB-231 cells proceeded via a similar pathway, their effects were monitored on cell cycle distributions using propidium iodide staining and flow cytometry. […]

MDA-MB-231 cells [10] = assay: Apoptosis (annexin V), MDA-MB-231; format: cell-based, human; settings: MDA-MB-231, tested concentration
Experimental: as §4

| SMILES | IC50 [1] [µM] | IC50 [2] [µM] | IC50 [3] [µM] | inhibition at 100 µM [4] [%] | inhibition at 100 µM [5] [%] | inhibition at 100 µM [6] [%] | inhibition at 100 µM [7] [%] | inhibition at 100 µM (Cryptococcus neoformans; ATCC66031, Cryptococcus neoformans ATCC 66031, 100 μM) [%] | inhibition at 100 µM (Cryptococcus neoformans; C. neoformans B4546, 100 μM) [%] | inhibition at 100 µM (Cryptococcus neoformans; C. neoformans JEC20, 100 μM) [%] | inhibition at 100 µM (Cryptococcus neoformans; C. neoformans VANC-R265, 100 μM) [%] | increase of anticancer activity by a factor, compared to compound 19 [8] | cells arrested in G2/M stage (MDA-MB-231 cells [9]) [%] | annexin V-positive cells (MDA-MB-231 cells [10]) |
| --- | --- | --- | --- | --- | --- | --- | --- | --- | --- | --- | --- | --- | --- | --- |
| c1ccc(COc2nc(OCc3ccccc3)c3[nH]ccc3n2)cc1 [Compound 15, 2,4-Bis-benzyloxy-5H-pyrrolo[3,2-d]pyrimidine] | 118 ± 8 | 86 | 98 | – | – | – | – | – | – | – | – | – | – | – |
| Clc1ncc2sccc2n1 [Compound 5] | – | – | – | < 43 | < 43 | < 43 | < 43 | < 43 | < 43 | < 43 | < 43 | – | – | – |
| Clc1nc(Cl)c2[nH]cc(I)c2n1 [Compound 20, 7-iodo-2,4-dichloro pyrrolo[3,2-d]pyrimidine] | 0.93 | 4.9 | 0.92 | – | – | – | – | – | – | – | – | 5 | 30 | robust accumulation |
| Ic1c[nH]c2c(OCc3ccccc3)nc(OCc3ccccc3)nc12 [Compound 16, 7-iodo-2,4-bis-benzyloxy-5H-pyrrolo[3,2-d]pyrimidine] | 21 ± 2 | 17 | 17 | – | – | – | – | – | – | – | – | – | – | – |
